The values that follow come from patent US10689383B2, “Optionally fused heterocyclyl-substituted derivatives of pyrimidine useful for the treatment of inflammatory, metabolic, oncologic and autoimmune diseases” (NUEVOLUTION A/S, priority 2014, dated 2020).

Test [1] has as its target T1, yeast Gal4-DNA binding domain fused to the ligand binding domain of human RORγ (Homo sapiens, UniProt P51449).
T1 construct: host or cells: HEK293t
T1 sequence (P51449 269-508 limits assumed): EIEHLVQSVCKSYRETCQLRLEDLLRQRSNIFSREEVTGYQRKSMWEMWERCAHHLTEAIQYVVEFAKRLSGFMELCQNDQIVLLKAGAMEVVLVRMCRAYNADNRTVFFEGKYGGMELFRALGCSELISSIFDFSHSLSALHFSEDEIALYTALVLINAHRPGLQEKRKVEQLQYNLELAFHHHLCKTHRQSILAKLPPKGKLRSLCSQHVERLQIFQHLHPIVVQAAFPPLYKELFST
Put plainly: RORγ Reporter Assay (Gal4). The class given is cell-based. The conditions noted are these: values given as lower bounds of ranges; for Gal4 activity range @ 1 μM (% inhibition): RORγ Reporter Assay (Gal4) at 1 μM; for Gal4 activity range @ 0.1 μM (% inhibition): RORγ Reporter Assay (Gal4) at 0.1 μM. The essentials:
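HEK293t reporter cells expressing the hybrid, with Gal4-UAS-driven firefly luciferase, treated in triplicate with compound at 1,000 nM and 100 nM (0.1% DMSO) in medium with 10% charcoal-stripped FBS for 24 h at 37 °C. Luminescence read; percent reduction of RLU calculated relative to vehicle.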
Background: In a reporter assay the amount or activity of a reporter protein is the signal.

Test [2] has as its target T2, human RORγt (Ligand Binding Domain) (Homo sapiens, UniProt P51449).
T2 construct: purchased Crelux (Planegg, Germany) batch no PC5032-1
T2 sequence (P51449 269-508 limits assumed): T1 sequence (P51449 269-508 limits assumed)
The test can be described thus: Fluorescence Polarization (FP) Assay. Conditions: Fluorescence Polarization (FP) Assay; values given as upper bounds of activity ranges; read-out: FP activity range. The essentials:
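In vitro FP binding assay monitoring ligand binding within the ligand binding pocket. Probe is a TAMRA-labelled RORγt ligand (MW 910 g/mole); DMSO served as negative control.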

The structures appear in SMILES notation. Some results are limits rather than exact numbers.

`CN1CC(CNc2ncnc(N3CCCC3c3ccc(C(F)(F)F)cc3)c2F)CC1=O` (stereo not shown) [Example 109, 4-[[[5-fluoro-6-[2-[4-(trifluoromethyl)phenyl]pyrrolidin-1-yl]pyrimidin-4-yl]amino]methyl]-1-methyl-pyrrolidin-2-one]: the “Gal4 activity range @ 1 μM (% inhibition)” value in test [1] is more than 20 % inhibition. Besides, in test [2], the IC50 is less than 2 µM.
The corresponding values for `O=C1CN(c2ccc(CNc3ncnc(N4CCCC4c4ccc(C(F)(F)F)cc4)c3F)cc2)CCN1` (stereo not shown) [Example 60, 4-[4-[[[5-fluoro-6-[2-[4-(trifluoromethyl)phenyl]pyrrolidin-1-yl]pyrimidin-4-yl]amino]methyl]phenyl]piperazin-2-one] are more than 20 % inhibition and less than 2 µM.
Regarding `Cc1ccc(C2CCCN2c2ncnc(NCc3ccc(CC(N)=O)cc3)c2F)cc1` (stereo not shown) [Example 302, 2-[4-[[[5-fluoro-6-[2-(p-tolyl)pyrrolidin-1-yl]pyrimidin-4-yl]amino]methyl]phenyl]acetamide], in test [1], the “Gal4 activity range @ 0.1 μM (% inhibition)” value is reported as more than 20 % inhibition and the “Gal4 activity range @ 1 μM (% inhibition)” value is recorded as more than 50 % inhibition. In addition, in test [2], the IC50 is less than 0.5 µM.
On the same counts, the results for `NC(=O)Cc1ccc(CNc2ncnc(N3CCOC[C@@H]3c3ccc(OC(F)(F)F)cc3)c2F)cc1` [Example 230, 2-[4-[[[5-fluoro-6-[(3S)-3-[4-(trifluoromethoxy)phenyl]morpholin-4-yl]pyrimidin-4-yl]amino]methyl]phenyl]acetamide] are more than 50 % inhibition, more than 80 % inhibition and less than 0.5 µM.
Regarding `O=C(O)Cc1ccc(CNc2ncnc(N3CCC[C@H]3c3ccc(C(F)(F)F)cc3)c2F)cc1` [Example 118, 2-[4-[[[5-fluoro-6-[(2S)-2-[4-(trifluoromethyl)phenyl]pyrrolidin-1-yl]pyrimidin-4-yl]amino]methyl]phenyl]acetic acid], in test [1], the “Gal4 activity range @ 0.1 μM (% inhibition)” value was more than 0 % inhibition and the “Gal4 activity range @ 1 μM (% inhibition)” value was more than 20 % inhibition. In addition, the IC50 in test [2] was less than 10 µM.
With `OC1(CNc2ncnc(N3CCCC3c3ccc(C(F)(F)F)cc3)c2F)CCOCC1` (stereo not shown) [Example 129, 4-[[[5-fluoro-6-[2-[4-(trifluoromethyl)phenyl]pyrrolidin-1-yl]pyrimidin-4-yl]amino]methyl]tetrahydropyran-4-ol], in test [1], the “Gal4 activity range @ 0.1 μM (% inhibition)” value was more than 50 % inhibition. Moreover, in test [2], the IC50 is less than 0.5 µM.
Regarding `NC(=O)Cc1ccc(CNc2ncnc(N3CCOC[C@@H]3c3ccc(OC(F)(F)F)cc3F)c2F)cc1` [Example 258, 2-[4-[[[5-fluoro-6-[(3S)-3-[2-fluoro-4-(trifluoromethoxy)phenyl]morpholin-4-yl]pyrimidin-4-yl]amino]methyl]phenyl]acetamide], in test [1], the “Gal4 activity range @ 0.1 μM (% inhibition)” value is given as more than 80 % inhibition and the “Gal4 activity range @ 1 μM (% inhibition)” value is more than 80 % inhibition. The IC50 in test [2] is less than 0.5 µM.
In the case of `O=S(=O)(NC1CC1)c1ccc(CNc2ncnc(N3CCOC[C@@H]3c3ccc(C(F)(F)F)cc3)c2F)cc1` [Example 236, N-cyclopropyl-4-[[[5-fluoro-6-[(3S)-3-[4-(trifluoromethyl)phenyl]morpholin-4-yl]pyrimidin-4-yl]amino]methyl] benzenesulfonamide], in test [1], the “Gal4 activity range @ 0.1 μM (% inhibition)” value is listed as more than 80 % inhibition and the “Gal4 activity range @ 1 μM (% inhibition)” value was more than 80 % inhibition. Besides, the IC50 in test [2] was less than 0.5 µM.
In the case of `NC(=O)Cc1ccc(CNc2ncnc(N3CCCC3c3cccc(Br)c3)c2F)cc1` (stereo not shown) [Example 305, 2-[4-[[[6-[2-(3-bromophenyl)pyrrolidin-1-yl]-5-fluoro-pyrimidin-4-yl]amino]methyl]phenyl]acetamide], in test [1], the “Gal4 activity range @ 0.1 μM (% inhibition)” value is reported as more than 50 % inhibition and the “Gal4 activity range @ 1 μM (% inhibition)” value is recorded as more than 80 % inhibition. For the same compound, the IC50 in test [2] was less than 0.5 µM.
With `Fc1c(NCc2ccsc2)ncnc1N1CCC[C@@H]1c1ccc(C(F)(F)F)cc1` [Example 185, 5-fluoro-N-(3-thienylmethyl)-6-[(2R)-2-[4-(trifluoromethyl)phenyl]pyrrolidin-1-yl]pyrimidin-4-amine], the “Gal4 activity range @ 0.1 μM (% inhibition)” value in test [1] is on record as more than 50 % inhibition. For the same compound, the IC50 in test [2] is less than 1 µM.
With `O=C(O)Cc1ccc(CNc2ncnc(N3CCC[C@@H]3c3ccc(C(F)(F)F)cc3)c2F)s1` [Example 207, 2-[5-[[[5-fluoro-6-[(2R)-2-[4-(trifluoromethyl)phenyl]pyrrolidin-1-yl]pyrimidin-4-yl]amino]methyl]-2-thienyl]acetic acid], in test [1], the “Gal4 activity range @ 0.1 μM (% inhibition)” value is more than 20 % inhibition and the “Gal4 activity range @ 1 μM (% inhibition)” value was more than 80 % inhibition. Moreover, the IC50 in test [2] was less than 0.5 µM.
The corresponding values for `N#CC1(CNc2ncnc(N3CCOC[C@@H]3c3ccc(C(F)(F)F)cc3)c2F)CCOCC1` [Example 257, 4-[[[5-fluoro-6-[(3S)-3-[4-(trifluoromethyl)phenyl]morpholin-4-yl]pyrimidin-4-yl]amino]methyl]tetrahydropyran-4-carbonitrile] are more than 50 % inhibition, more than 80 % inhibition and less than 0.5 µM.
On the same counts, the results for `CS(=O)(=O)N1CCC(CNc2ncnc(N3CCC[C@@H]3c3ccc(C(F)(F)F)cc3)c2F)CC1` [Example 197, 5-fluoro-N-[(1-methylsulfonyl-4-piperidyl)methyl]-6-[(2R)-2-[4-(trifluoromethyl)phenyl]pyrrolidin-1-yl]pyrimidin-4-amine] are more than 80 % inhibition, more than 80 % inhibition and less than 0.5 µM.
On the same counts, the results for `COc1ccc(C2CCCN2c2ncnc(NCc3ccc(CC(N)=O)cc3)c2F)c(OC)c1` (stereo not shown) [Example 318, 2-[4-[[[6-[2-(2,4-dimethoxyphenyl)pyrrolidin-1-yl]-5-fluoro-pyrimidin-4-yl]amino]methyl]phenyl]acetamide] are more than 20 % inhibition, more than 20 % inhibition and less than 0.5 µM.
Regarding `CC(C)(C)C[C@@H](Nc1ncnc(N2CCOCC2c2ccc(OC(F)(F)F)cc2)c1F)C(N)=O` (stereo partly drawn) [Example 68, (2R)-2-[[5-fluoro-6-[3-[4-(trifluoromethoxy)phenyl]morpholin-4-yl]pyrimidin-4-yl]amino]-4,4-dimethyl-pentanamide], the “Gal4 activity range @ 1 μM (% inhibition)” value in test [1] is given as more than 80 % inhibition. The IC50 in test [2] is less than 2 µM.
For the compound `CC1(CNc2ncnc(N3CCCC3c3ccc(C(F)(F)F)cc3)c2F)CCC1` (stereo not shown) [Example 152, 5-fluoro-N-[(1-methylcyclobutyl)methyl]-6-[2-[4-(trifluoromethyl)phenyl]pyrrolidin-1-yl]pyrimidin-4-amine], in test [1], the “Gal4 activity range @ 0.1 μM (% inhibition)” value was more than 0 % inhibition. Further, the IC50 in test [2] is less than 0.5 µM.
On to `CC(=O)N1CCC(F)(CNc2ncnc(N3CCOC[C@@H]3c3ccc(C(F)(F)F)cc3)c2F)CC1` [Example 262, 1-[4-fluoro-4-[[[5-fluoro-6-[(3S)-3-[4-(trifluoromethyl)phenyl]morpholin-4-yl]pyrimidin-4-yl]amino]methyl]-1-piperidyl]ethanone], for which, in test [1], the “Gal4 activity range @ 0.1 μM (% inhibition)” value is recorded as more than 20 % inhibition and the “Gal4 activity range @ 1 μM (% inhibition)” value is reported as more than 50 % inhibition. In test [2], the IC50 was less than 1 µM.
For `CN(C)C(=O)C1CCC(CNc2ncnc(N3CCCC3c3ccc(C(F)(F)F)cc3)c2F)O1` (stereo not shown) [Example 110, 5-[[[5-fluoro-6-[2-[4-(trifluoromethyl)phenyl]pyrrolidin-1-yl]pyrimidin-4-yl]amino]methyl]-N,N-dimethyl-tetrahydrofuran-2-carboxamide], the “Gal4 activity range @ 1 μM (% inhibition)” value in test [1] is more than 0 % inhibition. Moreover, in test [2], the IC50 was less than 10 µM.
For the compound `NC(=O)Cc1ccc(Cn2ccc3c(N4CCOCC4c4ccccc4)ncnc32)cc1` (stereo not shown) [Example 284, 2-[4-[[4-(3-phenylmorpholin-4-yl)pyrrolo[2,3-d]pyrimidin-7-yl]methyl]phenyl]acetamide], in test [1], the “Gal4 activity range @ 0.1 μM (% inhibition)” value is more than 20 % inhibition and the “Gal4 activity range @ 1 μM (% inhibition)” value is given as more than 50 % inhibition. In addition, the IC50 in test [2] was less than 0.5 µM.
The corresponding values for `NC(=O)Cc1ccc(CNc2ncnc(N3CCC3c3ccc(C(F)(F)F)cc3)c2F)cc1` (stereo not shown) [Example 307, 2-[4-[[[5-fluoro-6-[2-[4-(trifluoromethyl)phenyl]azetidin-1-yl]pyrimidin-4-yl]amino]methyl]phenyl]acetamide] are more than 20 % inhibition, more than 50 % inhibition and less than 2 µM.
For `CC(C)(C)C[C@@H](Nc1ncnc(N2CCCC2c2ccc(C(F)(F)F)c(F)c2)c1F)C(N)=O` (stereo partly drawn) [Example 72, (2R)-2-[[5-fluoro-6-[2-[3-fluoro-4-(trifluoromethyl)phenyl]pyrrolidin-1-yl]pyrimidin-4-yl]amino]-4,4-dimethyl-pentanamide], the “Gal4 activity range @ 1 μM (% inhibition)” value in test [1] is more than 80 % inhibition. Further, the IC50 in test [2] is less than 1 µM.
